Measured values as given in patent US12522602B2, “Derivatives having 2,3-dihydro-1H-indene or 2,3-dihydrobenzofuran moiety or pharmaceutically acceptable salt thereof and pharmaceutical compositions comprising the same” (YUHAN CORPORATION, priority 2019, dated 2026).

What follows are compounds tested on GM1 production in Jurkat cells (assay: cells). Settings: Homo sapiens, Jurkat, 72 h.
Type: cell-based
Compound `CC(C)Oc1ccc(-c2ccc3c(c2)CC(C)(C)C3NC(=O)O[C@@H]2CN3CCC2CC3)cc1Cl` (stereo partly drawn) [Example 127, (S)-quinuclidin-3-yl (5-(3-chloro-4-isopropoxyphenyl)-2,2-dimethyl-2,3-dihydro-1H-inden-1-yl)carbamate] has an IC50 of 18.2 nM.
For `COc1ccc(-c2ccc3c(c2)CC(C)(C)C3NC(=O)O[C@@H]2CN3CCC2CC3)c(F)c1` (stereo partly drawn) [Example 128, (S)-quinuclidin-3-yl (5-(2-fluoro-4-methoxyphenyl)-2,2-dimethyl-2,3-dihydro-1H-inden-1-yl)carbamate], the IC50 was 18.4 nM.
Compound `CN(C)c1cc(-c2ccc3c(c2)CC(C)(C)C3NC(=O)O[C@@H]2CN3CCC2CC3)ccc1F` (stereo partly drawn) [Example 129, (S)-quinuclidin-3-yl (5-(3-(dimethylamino)-4-fluorophenyl)-2,2-dimethyl-2,3-dihydro-1H-inden-1-yl)carbamate] has an IC50 of 36.8 nM.
For `CC1(C)Cc2cc(-c3ccc4c(c3)CCCO4)ccc2C1NC(=O)O[C@@H]1CN2CCC1CC2` (stereo partly drawn) [Example 130, (S)-quinuclidin-3-yl (5-(chroman-6-yl)-2,2-dimethyl-2,3-dihydro-1H-inden-1-yl)carbamate], the IC50 was 10 nM.
Compound `CC1(C)Cc2cc(-c3ccc(C4CC4)cc3)ccc2C1NC(=O)O[C@@H]1CN2CCC1CC2` (stereo partly drawn) [Example 131, (S)-quinuclidin-3-yl (5-(4-cyclopropylphenyl)-2,2-dimethyl-2,3-dihydro-1H-inden-1-yl)carbamate] has an IC50 of 10.6 nM.
Work on `CN(C)c1ccc(-c2ccc3c(c2)CC(C)(C)C3NC(=O)O[C@@H]2CN3CCC2CC3)cc1` (stereo partly drawn) [Example 132, (S)-quinuclidin-3-yl (5-(4-(dimethylamino)phenyl)-2,2-dimethyl-2,3-dihydro-1H-inden-1-yl)carbamate] yielded an IC50 of 29.2 nM.
For `CCOc1ccc(-c2ccc3c(c2)CC(C)(C)C3NC(=O)O[C@@H]2CN3CCC2CC3)cc1F` (stereo partly drawn) [Example 133, (S)-quinuclidin-3-yl (5-(4-ethoxy-3-fluorophenyl)-2,2-dimethyl-2,3-dihydro-1H-inden-1-yl)carbamate], the IC50 was 22.6 nM.
`COc1ccc(-c2ccc3c(c2)CC(C)(C)C3NC(=O)O[C@@H]2CN3CCC2CC3)cc1C(F)(F)F` (stereo partly drawn) [Example 134, (S)-quinuclidin-3-yl (5-(4-methoxy-3-(trifluoromethyl)phenyl)-2,2-dimethyl-2,3-dihydro-1H-inden-1-yl)carbamate] gave an IC50 of 43.2 nM.
In the case of `CCCOc1ccc(-c2ccc3c(c2)CC(C)(C)C3NC(=O)O[C@@H]2CN3CCC2CC3)cc1` (stereo partly drawn) [Example 135, (S)-quinuclidin-3-yl (2,2-dimethyl-5-(4-propoxyphenyl)-2,3-dihydro-1H-inden-1-yl)carbamate], the IC50 is reported as 8.1 nM.
In the case of `CC(C)COc1ccc(-c2ccc3c(c2)CC(C)(C)C3NC(=O)O[C@@H]2CN3CCC2CC3)cc1` (stereo partly drawn) [Example 136, (S)-quinuclidin-3-yl (5-(4-isobutoxyphenyl)-2,2-dimethyl-2,3-dihydro-1H-inden-1-yl)carbamate], the IC50 is reported as 1.7 nM.
`CC1(C)Cc2cc(-c3ccsc3)ccc2C1NC(=O)O[C@@H]1CN2CCC1CC2` (stereo partly drawn) [Example 137, (S)-quinuclidin-3-yl (2,2-dimethyl-5-(thiophen-3-yl)-2,3-dihydro-1H-inden-1-yl)carbamate] showed an IC50 of 12.1 nM.
With `Cc1cscc1-c1ccc2c(c1)CC(C)(C)C2NC(=O)O[C@@H]1CN2CCC1CC2` (stereo partly drawn) [Example 138, (S)-quinuclidin-3-yl (2,2-dimethyl-5-(4-methylthiophen-3-yl)-2,3-dihydro-1H-inden-1-yl)carbamate] the IC50 was 9.1 nM.
Work on `CN(C)CCOc1cccc(-c2ccc3c(c2)CC(C)(C)C3NC(=O)O[C@@H]2CN3CCC2CC3)c1` (stereo partly drawn) [Example 139, (S)-quinuclidin-3-yl (5-(3-(2-(dimethylamino)ethoxy)phenyl)-2,2-dimethyl-2,3-dihydro-1H-inden-1-yl)carbamate] yielded an IC50 of 74.4 nM.
`CC1(C)Cc2cc(-c3cccc4ccncc34)ccc2C1NC(=O)O[C@@H]1CN2CCC1CC2` (stereo partly drawn) [Example 140, (S)-quinuclidin-3-yl (5-(isoquinolin-8-yl)-2,2-dimethyl-2,3-dihydro-1H-inden-1-yl)carbamate] was tested, and the IC50 was 10.5 nM.
`CC1(C)Cc2cc(-c3cccc4cnccc34)ccc2C1NC(=O)O[C@@H]1CN2CCC1CC2` (stereo partly drawn) [Example 141, (S)-quinuclidin-3-yl (5-(isoquinolin-5-yl)-2,2-dimethyl-2,3-dihydro-1H-inden-1-yl)carbamate] was tested, and the IC50 was 39.9 nM.
`CC1(C)Cc2cc(-c3cncc4ccccc34)ccc2C1NC(=O)O[C@@H]1CN2CCC1CC2` (stereo partly drawn) [Example 142, (S)-quinuclidin-3-yl (5-(isoquinolin-4-yl)-2,2-dimethyl-2,3-dihydro-1H-inden-1-yl)carbamate] showed an IC50 of 20.5 nM.
`CC(C)Oc1ccc(-c2ccc3c(c2)CC(C)(C)C3NC(=O)O[C@@H]2CN3CCC2CC3)cc1` (stereo partly drawn) [Example 144, (S)-quinuclidin-3-yl (5-(4-isopropoxyphenyl)-2,2-dimethyl-2,3-dihydro-1H-inden-1-yl)carbamate] was tested, and the IC50 was 6.2 nM.
In the case of `CC(C)Oc1ccccc1-c1ccc2c(c1)CC(C)(C)C2NC(=O)O[C@@H]1CN2CCC1CC2` (stereo partly drawn) [Example 145, (S)-quinuclidin-3-yl (5-(2-isopropoxyphenyl)-2,2-dimethyl-2,3-dihydro-1H-inden-1-yl)carbamate], the IC50 is reported as 23 nM.
Compound `CC(C)(C)c1ccc(-c2ccc3c(c2)CC(C)(C)C3NC(=O)O[C@@H]2CN3CCC2CC3)cc1` (stereo partly drawn) [Example 146, (S)-quinuclidin-3-yl (5-(4-(tert-butyl)phenyl)-2,2-dimethyl-2,3-dihydro-1H-inden-1-yl)carbamate] has an IC50 of 14.1 nM.
`CCc1ccc(-c2ccc3c(c2)CC(C)(C)C3NC(=O)O[C@@H]2CN3CCC2CC3)cc1` (stereo partly drawn) [Example 147, (S)-quinuclidin-3-yl (5-(4-ethylphenyl)-2,2-dimethyl-2,3-dihydro-1H-inden-1-yl)carbamate] was tested, and the IC50 was 14 nM.
For `CC1(C)Cc2cc(-c3ccc(N4CCOCC4)cc3)ccc2C1NC(=O)O[C@@H]1CN2CCC1CC2` (stereo partly drawn) [Example 148, (S)-quinuclidin-3-yl (2,2-dimethyl-5-(4-morpholinophenyl)-2,3-dihydro-1H-inden-1-yl)carbamate], the IC50 was 30 nM.
Compound `COCc1ccc(-c2ccc3c(c2)CC(C)(C)C3NC(=O)O[C@@H]2CN3CCC2CC3)cc1` (stereo partly drawn) [Example 149, (S)-quinuclidin-3-yl (5-(4-(methoxymethyl)phenyl)-2,2-dimethyl-2,3-dihydro-1H-inden-1-yl)carbamate] has an IC50 of 27.6 nM.
`CC1(C)Cc2cc(-c3ccc(OCC(F)F)cc3)ccc2C1NC(=O)O[C@@H]1CN2CCC1CC2` (stereo partly drawn) [Example 150, (S)-quinuclidin-3-yl (5-(4-(2,2-difluoroethoxy)phenyl)-2,2-dimethyl-2,3-dihydro-1H-inden-1-yl)carbamate] was tested, and the IC50 was 6.8 nM.
`Cc1cc(-c2ccc3c(c2)CC(C)(C)C3NC(=O)O[C@@H]2CN3CCC2CC3)ccc1N1CCOCC1` (stereo partly drawn) [Example 151, (S)-quinuclidin-3-yl (2,2-dimethyl-5-(3-methyl-4-morpholinophenyl)-2,3-dihydro-1H-inden-1-yl)carbamate] was tested, and the IC50 was 37.9 nM.
In the case of `CC1(C)Cc2cc(-c3ccc(N4CCOCC4)c(F)c3)ccc2C1NC(=O)O[C@@H]1CN2CCC1CC2` (stereo partly drawn) [Example 152, (S)-quinuclidin-3-yl (5-(3-fluoro-4-morpholinophenyl)-2,2-dimethyl-2,3-dihydro-1H-inden-1-yl)carbamate], the IC50 is reported as 32.5 nM.
`CC1(C)Cc2cc(-c3ccc(N4CCOCC4)c(Cl)c3)ccc2C1NC(=O)O[C@@H]1CN2CCC1CC2` (stereo partly drawn) [Example 153, (S)-quinuclidin-3-yl (5-(3-chloro-4-morpholinophenyl)-2,2-dimethyl-2,3-dihydro-1H-inden-1-yl)carbamate] was tested, and the IC50 was 41.4 nM.
`CC1(C)Cc2cc(-c3ccc4c(c3)OCCCO4)ccc2C1NC(=O)O[C@@H]1CN2CCC1CC2` (stereo partly drawn) [Example 154, (S)-quinuclidin-3-yl (5-(3,4-dihydro-2H-benzo[b][1,4]dioxepin-7-yl)-2,2-dimethyl-2,3-dihydro-1H-inden-1-yl)carbamate] showed an IC50 of 27.4 nM.
In the case of `CC1(C)Cc2cc(-c3cccc(C(F)F)c3)ccc2C1NC(=O)O[C@@H]1CN2CCC1CC2` (stereo partly drawn) [Example 155, (S)-quinuclidin-3-yl (5-(3-(difluoromethyl)phenyl)-2,2-dimethyl-2,3-dihydro-1H-inden-1-yl)carbamate], the IC50 is reported as 8.4 nM.
Work on `CC1(C)Cc2cc(-c3cccc4cccnc34)ccc2C1NC(=O)O[C@@H]1CN2CCC1CC2` (stereo partly drawn) [Example 156, (S)-quinuclidin-3-yl (2,2-dimethyl-5-(quinolin-8-yl)-2,3-dihydro-1H-inden-1-yl)carbamate] yielded an IC50 of 46.7 nM.
`CC1(C)Cc2cc(-c3coc4ccccc34)ccc2C1NC(=O)O[C@@H]1CN2CCC1CC2` (stereo partly drawn) [Example 157, (S)-quinuclidin-3-yl (5-(benzofuran-3-yl)-2,2-dimethyl-2,3-dihydro-1H-inden-1-yl)carbamate] gave an IC50 of 2.8 nM.
Work on `CC1(C)Cc2cc(-c3cc4ccccc4o3)ccc2C1NC(=O)O[C@@H]1CN2CCC1CC2` (stereo partly drawn) [Example 158, (S)-quinuclidin-3-yl (5-(benzofuran-2-yl)-2,2-dimethyl-2,3-dihydro-1H-inden-1-yl)carbamate] yielded an IC50 of 17.1 nM.
`COc1ccc(-c2ccc3c(c2)CC(C)(C)C3NC(=O)O[C@@H]2CN3CCC2CC3)cc1` (stereo partly drawn) [Example 159, (S)-quinuclidin-3-yl (5-(4-methoxyphenyl)-2,2-dimethyl-2,3-dihydro-1H-inden-1-yl)carbamate] gave an IC50 of 12.7 nM.
With `CCOc1ccc(-c2ccc3c(c2)CC(C)(C)C3NC(=O)O[C@@H]2CN3CCC2CC3)cc1` (stereo partly drawn) [Example 160, (S)-quinuclidin-3-yl (5-(4-ethoxyphenyl)-2,2-dimethyl-2,3-dihydro-1H-inden-1-yl)carbamate] the IC50 was 22.7 nM.
In the case of `CC(C)Cc1ccc(-c2ccc3c(c2)CC(C)(C)C3NC(=O)O[C@@H]2CN3CCC2CC3)cc1` (stereo partly drawn) [Example 161, (S)-quinuclidin-3-yl (5-(4-isobutylphenyl)-2,2-dimethyl-2,3-dihydro-1H-inden-1-yl)carbamate], the IC50 is reported as 10.8 nM.
`COc1c(Cl)ccc(-c2ccc3c(c2)CC(C)(C)C3NC(=O)O[C@@H]2CN3CCC2CC3)c1Cl` (stereo partly drawn) [Example 162, (S)-quinuclidin-3-yl (5-(2,4-dichloro-3-methoxyphenyl)-2,2-dimethyl-2,3-dihydro-1H-inden-1-yl)carbamate] was tested, and the IC50 was 38.8 nM.

Same assay, conditions: read-out: IC50
`CC1(C)Cc2cc(-c3cnc4ccccc4c3)ccc2C1NC(=O)O[C@@H]1CN2CCC1CC2` (stereo partly drawn) [Example 143, (S)-quinuclidin-3-yl (2,2-dimethyl-5-(quinolin-3-yl)-2,3-dihydro-1H-inden-1-yl)carbamate] gave an IC50 of 25.2 nM.
